Series [1] addresses CDK9/CycT1 (Homo sapiens (Human), UniProt P50750). Nature of the series: CDK9/CycT1 kinase assay (TR-FRET). The settings on record: Method 1. Format: biochemical. The procedure, abridged:
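Recombinant full-length His-tagged human CDK9/CycT1, insect-cell expressed and Ni-NTA purified. Substrate is a biotinylated peptide (biotin-Ttds-linked). Kinase inhibition is read out by TR-FRET.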
A general note: Time-resolved FRET reads energy transfer from a long-lived donor to a nearby acceptor.

Series [2] deals with CDK2/CycE (Homo sapiens (Human), UniProt P24941). Nature of the series: CDK2/CycE kinase assay (TR-FRET). It is filed as biochemical. The settings on record: Method 2. A digest of the protocol: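 Enzyme was GST-tagged human CDK2 with GST-tagged human CycE, expressed in Sf9 insect cells and glutathione-affinity purified. The kinase reaction used a biotinylated peptide substrate, with inhibition measured by TR-FRET.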

Series [3] in a line: Equilibrium shake flask solubility assay. Format: physicochemical. Particulars: pH 6.5, equilibrium shake flask method; for solubility thermodynamic at 24 h: phosphate buffer, pH 6.5, aqueous buffer, thermodynamic from solid, water. The procedure: 4. Equilibrium Shake Flask Solubility Assay:
The thermodynamic solubility of compounds in water was determined by an equilibrium shake flask method (see for example: E. H. Kerns, L. Di: Drug-like Properties: Concepts, Structure Design and Methods, 276-286, Burlington, Mass., Academic Press, 2008). A saturated solution of the drug was prepared and the solution was mixed for 24 h to ensure that equilibrium was reached. The solution was centrifuged to remove the insoluble fraction and the concentration of the compound in solution was determined using a standard calibration curve.
To prepare the sample, 2 mg solid compound was weighed in a 4 mL glass vial. 1 mL phosphate buffer pH 6.5 was added. The suspension was stirred for 24 hrs at room temperature. The solution was centrifuged afterwards. To prepare the sample for the standard calibration, 2 mg solid sample was dissolved in 30 mL acetonitrile. After sonification the solution was diluted with water to 50 mL. Sample and standards were quantified by HPLC with UV-detection. For each sample two injection volumes (5 and 50 μl) in triplicates were made. Three injection volumes (5 μl, 10 μl and 20 μl) were made for the standard.
Chromatographic Conditions:
The areas of sample- and standard injections as well as the calculation of the solubility value (in mg/l) were determined by using HPLC software (Waters Empower 2 FR).

Series [4] relates to HeLa human cervical tumour cells. Kind of series: Proliferation assay (crystal violet), HeLa. Format: cell-based. The settings on record: Method 3, read-out: Inhibition of HeLa cell proliferation, IC50. The procedure, abridged: (§1)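 First, plate 3000 (NCI-H460, HeLa), 5000 (HeLa-MaTu-ADR) or 1500 (Caco-2) cells per well; next day, fix and stain a reference plate while the others get fresh medium containing compound at […] with 0.5% DMSO; after 4 days, fix, stain with crystal violet and read at 595 nm.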

In series [5] the test system is HeLa-MaTu-ADR, multidrug-resistant human cervical carcinoma cells. Kind of series: Proliferation assay (crystal violet), HeLa-MaTu-ADR. Format: cell-based. The settings on record: Homo sapiens, HeLa, Method 3, read-out: Inhibition of HeLa/MaTu/ADR cell proliferation, IC50. A digest of the protocol:
as §1

Series [6] deals with NCI-H460, human non-small cell lung carcinoma cells. Nature of the series: Proliferation assay (crystal violet), NCI-H460. Particulars: Homo sapiens, NCI-H460, NCI-H460 cells, Method 3; read-out: Inhibition of NCI-H460 cell proliferation, IC50. Format: cell-based. The procedure, abridged: as §1
Series [7] concerns DU145, hormone-independent human prostate carcinoma cells. Nature of the series: Proliferation assay (crystal violet), DU145. Format: cell-based. The settings on record: Homo sapiens, DU-145, DU145 cells, Method 3; read-out: Inhibition of DU145 cell proliferation, IC50. The procedure, abridged:
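DU145 hormone-independent human prostate carcinoma cells (ATCC HTB-81) were seeded at 5000 cells/well in 96-well plates in 200 μL growth medium with 10% fetal calf serum. After 24 hours, a zero-point plate was stained. The other plates got fresh medium containing test substances ([…], 0.5% dimethylsulfoxide) and were incubated for 4 days.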

The subject of series [8] is Caco-2 human colorectal carcinoma. Kind of series: Proliferation assay (crystal violet), Caco-2. The settings on record: Homo sapiens, Caco-2, Caco-2 cells, Method 3; read-out: Inhibition of Caco-2 cell proliferation, IC50. It is filed as cell-based. A digest of the protocol:
as §1

Series [9] has as its system B16F10 mouse melanoma cells. Nature of the series: Proliferation assay (crystal violet), B16F10. It is filed as cell-based. Particulars: Mus musculus, B16-F10, B16F10 cells, Method 3; read-out: Inhibition of B16F10 cell proliferation, IC50. A digest of the protocol:
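B16F10 mouse melanoma cells (ATCC CRL-6475) were seeded at 1000 cells/well into 96-well plates in 200 μL growth medium containing 10% fetal calf serum. After 24 hours, one zero-point plate was stained with crystal violet. The remaining plates got fresh medium with test substances (0 M and […], 0.5% dimethylsulfoxide) and were incubated for 4 days.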

Values after ≈ are worked out from the molar mass of the structure shown. Where two headings read alike, the source gives them in different places.

Sequence of CDK9/CycT1 (P50750 whole entry): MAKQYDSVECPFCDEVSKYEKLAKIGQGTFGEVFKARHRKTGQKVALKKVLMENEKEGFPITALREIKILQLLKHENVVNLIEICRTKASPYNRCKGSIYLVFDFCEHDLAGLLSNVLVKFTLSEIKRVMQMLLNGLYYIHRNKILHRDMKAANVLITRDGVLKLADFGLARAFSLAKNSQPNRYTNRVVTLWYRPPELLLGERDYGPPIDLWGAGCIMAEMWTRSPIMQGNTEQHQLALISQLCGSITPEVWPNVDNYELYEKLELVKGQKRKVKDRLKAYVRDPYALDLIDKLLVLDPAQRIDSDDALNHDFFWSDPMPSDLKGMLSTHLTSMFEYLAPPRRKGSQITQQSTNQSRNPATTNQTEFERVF
Sequence of CDK9/CycT1 (O60563 whole entry partner): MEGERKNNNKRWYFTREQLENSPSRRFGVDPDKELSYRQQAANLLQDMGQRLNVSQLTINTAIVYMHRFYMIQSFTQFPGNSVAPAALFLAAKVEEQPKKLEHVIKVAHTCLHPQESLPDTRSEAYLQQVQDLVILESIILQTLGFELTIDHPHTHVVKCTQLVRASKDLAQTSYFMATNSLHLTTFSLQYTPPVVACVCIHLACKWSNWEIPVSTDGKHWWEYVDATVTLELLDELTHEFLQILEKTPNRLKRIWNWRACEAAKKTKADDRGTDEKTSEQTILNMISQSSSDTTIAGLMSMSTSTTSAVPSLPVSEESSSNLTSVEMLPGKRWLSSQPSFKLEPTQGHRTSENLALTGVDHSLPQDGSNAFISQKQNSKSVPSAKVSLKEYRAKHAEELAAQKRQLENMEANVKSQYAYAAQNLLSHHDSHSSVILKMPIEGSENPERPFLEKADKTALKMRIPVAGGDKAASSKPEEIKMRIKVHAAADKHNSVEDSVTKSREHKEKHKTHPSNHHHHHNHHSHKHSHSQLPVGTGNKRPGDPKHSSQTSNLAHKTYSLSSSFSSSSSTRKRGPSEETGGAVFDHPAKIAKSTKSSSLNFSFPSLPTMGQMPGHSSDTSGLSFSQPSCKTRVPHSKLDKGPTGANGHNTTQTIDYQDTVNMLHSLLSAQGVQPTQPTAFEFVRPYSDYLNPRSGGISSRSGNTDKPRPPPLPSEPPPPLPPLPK

With `COc1ccc(F)cc1-c1ncnc(Nc2cccc(CS(C)(=N)=O)c2)n1` (single isomer, unassigned) [Example 23, 4-(5-Fluoro-2-methoxyphenyl)-N-{3-[(S-methylsulfonimidoyl)methyl]phenyl}-1,3,5-triazin-2-amine], the IC50 in [1] is 110 nM; in series [2] it was 5600 nM. Further, in series [3], the “Thermodynamic solubility in water at pH 6.5” value (shortened to “Thermodynamic solubility”) is recorded as 888 mg/l.

For `CNC(=O)N=S(C)(=O)Cc1cccc(Nc2ncnc(-c3ccc(F)cc3OC)n2)c1` (single isomer, unassigned; (+)) [Example 17, (+)-1-[(3-{[4-(4-Fluoro-2-methoxyphenyl)-1,3,5-triazin-2-yl]amino}benzyl)(methyl)oxido-λ^6-sulfanylidene]-3-methylurea], the IC50 in series [1] came to 14 nM; in [2], 1200 nM; in series [4], 580 nM; in series [5], 600 nM; in [6], 540 nM; in series [7], 580 nM. Further, the IC50 in [8] turned out to be 800 nM; in [9], 410 nM. Besides, in series [3], the “Thermodynamic solubility” value is given as 429 mg/l.

The term thermodynamic solubility denotes the concentration in solution at equilibrium with solid. As to `CC#CCOc1cc(F)ccc1-c1ncnc(Nc2cccc(CS(C)(=N)=O)c2)n1` (racemic) [Example 73, (rac)-4-[2-(But-2-yn-1-yloxy)-4-fluorophenyl]-N-{3-[(S-methylsulfonimidoyl)methyl]phenyl}-1,3,5-triazin-2-amine], the IC50 in [1] worked out at 8 nM; in series [2] it was 820 nM; in [4] (Homo sapiens, HeLa), 240 nM; in series [5], 280 nM; in series [6], 260 nM; in [7], 200 nM. The IC50 in [8] is 300 nM; in [9], 150 nM. The compound further came in with a solubility (thermodynamic) at 24 h in series [3] of 1220 µg/mL (≈ 2870 µM).

As to `COc1cc(F)ccc1-c1ncnc(Nc2cccc(CS(C)(=O)=NC#N)c2)n1` (single isomer, unassigned) [Example 49, [(3-{[4-(4-fluoro-2-methoxyphenyl)-1,3,5-triazin-2-yl]amino}benzyl)(methyl)oxido-λ^6-sulfanylidene]cyanamide], the IC50 stood at 7 nM in [1] and 650 nM in [2]. In addition, the thermodynamic solubility at 24 h in series [3] came out at 88 µg/mL (≈ 213 µM).

For `CCCOc1cc(F)ccc1-c1ncnc(Nc2cccc(CS(C)(=N)=O)c2)n1` (racemic) [Example 91, (rac)-4-(4-Fluoro-2-propoxyphenyl)-N-{3-[(S-methylsulfonimidoyl)methyl]phenyl}-1,3,5-triazin-2-amine], the IC50 worked out at 29 nM in [1]; 2300 nM in series [2]; 1100 nM in [4] (Homo sapiens, HeLa). The solubility (thermodynamic) at 24 h in series [3] is 104 µg/mL (≈ 250 µM).

On to `CNC(=O)N=S(C)(=O)Cc1cccc(Nc2ncnc(-c3ccc(F)cc3OC)n2)c1` (single isomer, unassigned; (-)) [Example 16, (−)-1-[(3-{[4-(4-Fluoro-2-methoxyphenyl)-1,3,5-triazin-2-yl]amino}benzyl)(methyl)oxido-λ^6-sulfanylidene]-3-methylurea], for which the IC50 in series [1] worked out at 19 nM; in series [2], 1100 nM; in series [4] (Homo sapiens, HeLa), 950 nM. Besides, the thermodynamic solubility at 24 h in series [3] was 323 µg/mL (≈ 727 µM).

With `CCOc1cc(F)ccc1-c1ncnc(Nc2cccc(CS(C)(=N)=O)c2)n1` (racemic) [Example 88, (rac)-4-(2-Ethoxy-4-fluorophenyl)-N-{3-[(S-methylsulfonimidoyl)methyl]phenyl}-1,3,5-triazin-2-amine], the IC50 in [1] was determined as 11 nM; in series [2] it was 1300 nM; in [4] (Homo sapiens, HeLa) it was 380 nM; in [5], 700 nM; in series [6], 890 nM; in [7] it was 730 nM. For the same compound, the results for the IC50 in series [8] and in [9] were 780 nM and 810 nM, respectively. The compound further gave a solubility (thermodynamic) at 24 h in series [3] of 884 µg/mL (≈ 2200 µM).

Regarding `CS(=N)(=O)Cc1cccc(Nc2ncnc(-c3cccc4c3OCCO4)n2)c1` (single isomer, unassigned) [Example 39, 4-(2,3-Dihydro-1,4-benzodioxin-5-yl)-N-{3-[(S-methylsulfonimidoyl)methyl]phenyl}-1,3,5-triazin-2-amine], the IC50 stood at 29 nM in series [1]; 1500 nM in series [2]; 1100 nM in series [4] (Homo sapiens, HeLa). In series [3], this compound displayed a solubility (thermodynamic) at 24 h of 819 µg/mL (≈ 2060 µM).

As to `CS(=N)(=O)Cc1cccc(Nc2ncnc(-c3cccc4c3OCCO4)n2)c1` (single isomer, unassigned) [Example 40, 4-(2,3-Dihydro-1,4-benzodioxin-5-yl)-N-{3-[(S-methylsulfonimidoyl)methyl]phenyl}-1,3,5-triazin-2-amine], the IC50 is 25 nM in [1], 1800 nM in series [2] and 1100 nM in series [4]. For the same compound, in series [3], the “Thermodynamic solubility” value was found to be 865 mg/l.

For the compound `C#CCOc1cc(F)ccc1-c1ncnc(Nc2cccc(CS(C)(=N)=O)c2)n1` (racemic) [Example 77, (rac)-4-[4-Fluoro-2-(prop-2-yn-1-yloxy)phenyl]-N-{3-[(S-methylsulfonimidoyl)methyl]phenyl}-1,3,5-triazin-2-amine], the IC50 in series [1] was determined as 15 nM; in series [2] it was 1600 nM; in series [4] (Homo sapiens, HeLa), 470 nM; in series [5], 630 nM; in [6], 560 nM; in series [7], 480 nM. In addition, the IC50 in series [8] came to 300 nM; in [9], 520 nM. The compound also registered a solubility (thermodynamic) at 24 h in series [3] of 256 µg/mL (≈ 622 µM).

Turning to `COc1ccc(F)cc1-c1ncnc(Nc2cccc(CS(C)(=N)=O)c2)n1` (single isomer, unassigned) [Example 22, 4-(5-Fluoro-2-methoxyphenyl)-N-{3-[(S-methylsulfonimidoyl)methyl]phenyl}-1,3,5-triazin-2-amine], the IC50 in series [1] is 91 nM; in series [2] it was 2800 nM. This compound came in with a thermodynamic solubility at 24 h in [3] of 787 µg/mL (≈ 2030 µM).

As for `COc1cc(F)c(F)cc1-c1ncnc(Nc2cccc(CS(C)(=N)=O)c2)n1` (racemic) [Example 10, (rac)-4-(4,5-Difluoro-2-methoxyphenyl)-N-{3-[(S-methylsulfonimidoyl)methyl]phenyl}-1,3,5-triazin-2-amine], the IC50 came to 28 nM in [1]; 1300 nM in [2]; 1100 nM in [4] (Homo sapiens, HeLa). The same compound displayed a solubility (thermodynamic) at 24 h in series [3] of 130 µg/mL (≈ 321 µM).

For the compound `COc1cc(F)ccc1-c1ncnc(Nc2cccc(CS(C)(=O)=NC#N)c2)n1` (single isomer, unassigned) [Example 50, [(3-{[4-(4-fluoro-2-methoxyphenyl)-1,3,5-triazin-2-yl]amino}benzyl)(methyl)oxido-λ^6-sulfanylidene]cyanamide], the IC50 in series [1] was 7 nM; in series [2], 430 nM; in [4] (Homo sapiens, HeLa), 260 nM; in series [5] it was 190 nM; in series [6], 310 nM; in series [7], 140 nM. The IC50 in series [8] turned out to be 350 nM; in series [9], 250 nM. Besides, in series [3], the “Thermodynamic solubility” value was found to be 126 mg/l.

The values above are taken from patent US9669034B2, “4-aryl-N-phenyl-1,3,5-triazin-2-amines containing a sulfoximine group” (BAYER INTELLECTUAL PROPERTY GMBH, priority 2011, dated 2017).
